According to patent US5225528A, “Cyclic hexapeptide oxytocin antagonists” (priority 1990, dated 1993):
Like-named read-outs stand apart in the source and are kept apart here. Numbered stars: 1 amine (or outer) side, 2 acyl side, 3 side chain; on linkers, the order of the positions; unused ones are H or OH. Square brackets hold non-standard residues; d marks the D form. Peptide text beside a SMILES is read from it. * marks the point of attachment. dPip(4-aza,4-Cbz) = O=C(O)[C@H]1CN(C(=O)OCc2ccccc2)CCN1; X2 = O=C(OCc1ccccc1)N1CCN([*:1])[C@H](C(=O)[*:2])C1; X4 = O=C([C@@H](Cc1cn(COCc2ccccc2)cn1)N[*:1])[*:2]; dPhe(4-NH2) = Nc1ccc(C[C@@H](N)C(=O)O)cc1; d1Nal = N[C@H](Cc1cccc2ccccc12)C(=O)O; d2Nal = N[C@H](Cc1ccc2ccccc2c1)C(=O)O; dNMeH = CN[C@H](Cc1c[nH]cn1)C(=O)O; X1 = O=C([C@H]1C=CCCN1[*:1])[*:2]; NMeI = CC[C@H](C)[C@H](NC)C(=O)O; Pip(4-aza) = O=C(O)[C@@H]1CNCCN1; X6 = O=C([C@H]1CCCNN1[*:1])[*:2]; dNMeF = CN[C@H](Cc1ccccc1)C(=O)O; Pip = O=C(O)[C@@H]1CCCCN1; dPip = O=C(O)[C@H]1CCCCN1; Orn = NCCC[C@H](N)C(=O)O; dNMeA = CN[C@H](C)C(=O)O; Cbz = O=C(OCc1ccccc1)*; Boc = CC(C)(C)OC(=O)*; Bn = c1ccc(C*)cc1

Columns and labels:
[1] = target: T1, uterine OT receptors (Rattus norvegicus, UniProt P70536); experiment: [^3 H]OT binding to uterine OT receptors, crude membrane preparation of uteri from DES-treated rats; details: for inhibition at 1 µM / inhibition at 0.1 µM: 1 h, read-out: [^3 H]OT: percent inhibition of radioligand at the given concentration; for inhibition at 1 µM: @ 1,000 (nM); for inhibition at 0.1 µM: @ 100 (nM)
T1 construct: from tissue; host or cells: uterus of DES-treated rats, crude membranes
T1 sequence (P70536 1-388): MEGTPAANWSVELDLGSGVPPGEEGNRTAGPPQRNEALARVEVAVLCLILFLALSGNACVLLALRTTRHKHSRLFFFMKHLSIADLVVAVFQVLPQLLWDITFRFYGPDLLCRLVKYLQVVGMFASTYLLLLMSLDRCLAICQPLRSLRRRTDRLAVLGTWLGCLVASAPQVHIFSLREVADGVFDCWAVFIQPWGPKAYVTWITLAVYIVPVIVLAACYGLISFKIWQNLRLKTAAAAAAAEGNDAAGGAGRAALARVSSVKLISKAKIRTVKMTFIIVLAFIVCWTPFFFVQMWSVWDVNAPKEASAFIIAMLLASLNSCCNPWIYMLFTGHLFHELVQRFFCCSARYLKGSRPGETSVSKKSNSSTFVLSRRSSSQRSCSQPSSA
Procedure: Competition studies were conducted at equilibrium (60 minutes; 22° C.) using 1 nM [^3 H]OT in the following assay buffer: 50 mM Tris-HCl, 5 mM MgCl2, and 0.1% BSA, pH 7.4.

[2] = target: T2, AVP-V1 sites (Rattus norvegicus, UniProt P30560); experiment: [^3 H]AVP binding to crude membrane preparation of male rat liver (AVP-V1 sites)
T2 construct: crude membrane preparation of male rat liver (AVP-V1 sites); from tissue; host or cells: male rat liver, crude membranes
Procedure: (§1) Nonspecific binding (5-10% of the total binding) was determined using 10 μM unlabeled AVP, and the binding reaction was terminated by filtration as described above for the [^3 H]OT binding assay.

[3] = target: T3, AVP-V2 sites (Rattus norvegicus, UniProt Q00788); experiment: [^3 H]AVP binding to crude membrane preparation of male rat kidney medulla (AVP-V2 sites); details: for IC50: read-out: Receptor Binding Results IC50 (nM) [^3 H]-AVP-V2
T3 construct: male rat liver (AVP-V1 sites) or kidney medulla (AVP-V2 sites); from tissue; host or cells: male rat kidney medulla, crude membranes
Procedure: as §1

[4] = rat uterus membranes, 1 nM [^3 H]OT, read-out: Receptor Binding Results IC50 (nM) [^3 H]OT
[5] = Receptor Binding Results IC50 (nM) [^3 H]-AVP-V1
[6] = rat kidney medulla membranes, 2 nM [^3 H]AVP
[7] = read-out: Receptor Binding Results IC50 (nM) [^3 H]-AVP-V1

T3 sequence (Q00788 whole entry): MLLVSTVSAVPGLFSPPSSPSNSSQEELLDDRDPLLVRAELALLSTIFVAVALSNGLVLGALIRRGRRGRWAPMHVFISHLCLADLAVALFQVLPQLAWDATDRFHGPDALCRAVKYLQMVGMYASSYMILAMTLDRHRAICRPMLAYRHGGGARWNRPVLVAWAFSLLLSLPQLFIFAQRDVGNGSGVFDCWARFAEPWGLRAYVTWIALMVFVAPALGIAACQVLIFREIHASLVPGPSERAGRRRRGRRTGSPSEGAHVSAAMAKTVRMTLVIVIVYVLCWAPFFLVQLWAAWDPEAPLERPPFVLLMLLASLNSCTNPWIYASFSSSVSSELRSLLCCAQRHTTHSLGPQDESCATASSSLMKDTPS
T2 sequence (P30560 whole entry): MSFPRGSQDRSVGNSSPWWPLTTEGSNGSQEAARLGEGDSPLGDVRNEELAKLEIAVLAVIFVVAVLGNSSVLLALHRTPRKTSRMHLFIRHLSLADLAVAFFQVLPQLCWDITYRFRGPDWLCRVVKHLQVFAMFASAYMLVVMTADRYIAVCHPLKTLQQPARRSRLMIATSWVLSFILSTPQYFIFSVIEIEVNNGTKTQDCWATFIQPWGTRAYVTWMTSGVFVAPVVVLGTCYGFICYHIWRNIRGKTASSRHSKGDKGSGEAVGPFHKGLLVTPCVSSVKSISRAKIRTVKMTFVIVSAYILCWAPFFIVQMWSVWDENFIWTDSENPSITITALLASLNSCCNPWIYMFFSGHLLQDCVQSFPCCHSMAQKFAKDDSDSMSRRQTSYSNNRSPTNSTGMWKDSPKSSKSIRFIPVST

| Structure (SMILES) | IC50 [1, 4] | IC50 [2, 5] | IC50 [3, 6] | IC50 [2, 7] | further results |
| --- | --- | --- | --- | --- | --- |
| CC[C@H](C)[C@@H]1NC(=O)[C@@H](Cc2ccccc2)NC(=O)[C@@H]2CCCN2C(=O)[C@@H](Cc2c[nH]cn2)NC(=O)[C@H](CCCCNC(=O)OCc2ccccc2)NC(=O)[C@H]2CCCCN2C1=O [Example 37, Cyclo[D-Phenylalanyl-L-isoleucyl-D-pipecolyl-L-(carbobenzyloxy)lysyl-D-histidyl-L-prolyl]] (cyclo(I[dPip]K(Cbz)[dH]P[dF])) | > 100 nM | 10000 nM | > 10000 nM |  |  |
| CC[C@H](C)[C@@H]1NC(=O)[C@@H](Cc2c[nH]c3ccccc23)NC(=O)[C@@H]2CCCN2C(=O)[C@@H](Cc2c[nH]cn2)NC(=O)[C@H](Cc2c[nH]cn2)NC(=O)[C@H]2CCCN2C1=O [Example 94, c-[D-Tryptophanyl-L-isoleucinyl-D-prolyl-L-histidyl-D-histidyl-L-prolyl]] (cyclo(H[dH]P[dW]I[dP])) |  | 10000 nM | > 10000 nM |  | inhibition at 1 µM [1]: 64% |
| CC[C@H](C)[C@@H]1NC(=O)[C@@H](Cc2ccccc2)NC(=O)[C@@H]2CCCN2C(=O)[C@@H](Cc2cnc[nH]2)NC(=O)[C@@H]2CCCCN2C(=O)[C@H]2CCCCN2C1=O [Example 3] (cyclo(I[dPip][Pip][dH]P[dF])) | 88 nM |  | 19000 nM | 7300 nM |  |
| CC[C@H](C)[C@@H]1NC(=O)[C@@H](Cc2cccc3ccccc23)NC(=O)[C@@H]2CCCN2C(=O)[C@@H](Cc2ccccc2)N(C)C(=O)[C@H](CCCCNC(=O)OC(C)(C)C)NC(=O)[C@H]2CCCCN2C1=O [Example 139, C-[D-1-Napthylalanyl-L-isoleucyl-D-pipecolyl-L-(N-t-butyloxycarbonyl)lysyl-D-(N-methyl)phenylalanyl-L-prolyl]] (cyclo(I[dPip]K(Boc)[dNMeF]P[d1Nal])) |  |  |  | 8000 nM | inhibition at 0.1 µM [1]: 24%; IC50 [3]: 8000 nM |
| CC[C@H](C)[C@@H]1NC(=O)[C@@H](Cc2ccccc2)NC(=O)[C@@H]2CCCN2C(=O)[C@@H](Cc2ccc(N)cc2)NC(=O)[C@@H]2CCCCN2C(=O)[C@H]2CCCCN2C1=O [Example 48, Cyclo[D-phenylalanyl-L-isoleucyl-D-pipecolyl-L-pipecolyl-D-(p-amino)phenylalanyl-L-prolyl]] (cyclo(I[dPip][Pip][dPhe(4-NH2)]P[dF])) | 250 nM | 10000 nM | > 10000 nM |  |  |
| CC[C@H](C)[C@@H]1NC(=O)[C@@H](Cc2ccccc2)NC(=O)[C@@H]2CCCN2C(=O)[C@@H](Cc2c[nH]cn2)NC(=O)[C@H]2CN(C(=O)OCc3ccccc3)CCN2C(=O)[C@H]2CCCCN2C1=O [Example 82, c-[D-Phenylalanyl-L-isoleucinyl-D-pipecolyl-D-piperazin-2-yl(4Cbz)-D-histidinyl-L-prolyl]] (cyclo(I[dPip][dPip(4-aza,4-Cbz)][dH]P[dF])) | 73 nM | 10000 nM | 10000 nM |  |  |
| CC[C@H](C)[C@H]1C(=O)N2CCCC[C@@H]2C(=O)N2CCCC[C@H]2C(=O)N(C)[C@H](Cc2ccccc2)C(=O)N2CCC[C@H]2C(=O)N(C)[C@H](C)C(=O)N1C [Example 16, C-[D-(N^α methyl)alanyl-L-(N^α methyl)isoleucyl-D-pipecolyl-L-pipecolyl-D-(N^α methyl)phenylalanyl-L-prolyl]] (cyclo([NMeI][dPip][Pip][dNMeF]P[dNMeA])) | 650 nM | > 10000 nM | > 10000 nM |  |  |
| CC[C@H](C)[C@@H]1NC(=O)[C@@H](Cc2ccccc2)NC(=O)[C@@H]2CCCN2C(=O)[C@@H](Cc2ccccc2)N(C)C(=O)[C@H]2C=CCCN2C(=O)[C@H]2CCCCN2C1=O [Example 22, Cyclo[D-Phenylalanyl-L-isoleucyl-D-pipecolyl-D-(3,4-Dehydro)-pipecolyl-D-(N^α methyl)phenylalanyl-L-Prolyl]] (cyclo(I[dPip][X1][dNMeF]P[dF])) | 2400 nM | > 10000 nM | > 10000 nM |  |  |
| CC[C@H](C)[C@@H]1NC(=O)[C@@H](Cc2c[nH]c3ccccc23)NC(=O)[C@@H]2CCCN2C(=O)[C@H](Cc2c[nH]cn2)NC(=O)[C@H](CCCNC(=O)OCc2ccccc2)NC(=O)[C@H]2CCCN2C1=O [Example 95, c-[D-Tryptophanyl-L-isoleucinyl-D-prolyl-L-ornithinyl(Cbz)-D-histidyl-L-prolyl]] (cyclo([dW]I[dP][Orn](Cbz)HP)) |  | > 10000 nM | > 10000 nM |  | inhibition at 0.1 µM [1]: 36% |
| CC[C@H](C)[C@@H]1NC(=O)[C@@H](Cc2c[nH]c3ccccc23)NC(=O)[C@@H]2CCCN2C(=O)[C@@H](Cc2cn(COCc3ccccc3)cn2)NC(=O)[C@@H]2CNCCN2C(=O)[C@H]2CCCCN2C1=O [Example 177, c-[D-Tryptophanyl-L-isoleucinyl-D-pipecolyl-L-piperazin-2-yl-D-histidinyl(BOM)-L-prolyl]] (cyclo([dW]I[dPip][Pip(4-aza)][X4]P)) | 76 nM |  |  | 16000 nM | IC50 [3]: 12000 nM |
| CC[C@H](C)[C@@H]1NC(=O)[C@@H](Cc2ccccc2)NC(=O)[C@@H]2CCCN2C(=O)[C@@H](Cc2c[nH]c3ccccc23)NC(=O)[C@@H]2CCCCN2C(=O)[C@H]2CCCCN2C1=O [Example 25, Cyclo[D-phenylalanyl-L-isoleucyl-D-pipecolyl-L-pipecolyl-D-trytophanyl-L-prolyl]] (cyclo(I[dPip][Pip][dW]P[dF])) | 120 nM |  |  | 3000 nM | IC50 [3]: 3900 nM |
| CC[C@H](C)[C@@H]1NC(=O)[C@@H](Cc2ccccc2)NC(=O)[C@@H]2CCCN2C(=O)[C@@H](Cc2c[nH]cn2)NC(=O)[C@@H]2CCCCN2C(=O)[C@H]2CCCNN2C1=O [Example 14, Cyclo[D-phenylalanyl-L-isoleucyl-D-piperazyl-L-pipecolyl-D-histidyl-L-prolyl]] (cyclo(I[X6][Pip][dH]P[dF])) | 38 nM |  |  | 10000 nM | IC50 [3]: > 10000 nM |
| CC[C@H](C)[C@@H]1NC(=O)[C@@H](Cc2ccccc2)NC(=O)[C@@H]2CCCN2C(=O)[C@@H](Cc2ccccc2)N(C)C(=O)[C@@H]2CCCN2C(=O)[C@H]2CCCCN2C1=O [Example 7, Cyclo[D-phenylalanyl-L-isolelucyl-D-pipecolyl-L-propyl-D-(N^α Methyl)phenyl-L-prolyl]] (cyclo(I[dPip]P[dNMeF]P[dF])) |  | > 10000 nM | > 10000 nM |  | IC50 ([1]; Receptor Binding Results IC50 (nM) [^3 H]OT): 350 nM |
| CC[C@H](C)[C@@H]1NC(=O)[C@@H](Cc2ccc3ccccc3c2)NC(=O)[C@@H]2CCCN2C(=O)[C@@H](Cc2ccccc2)N(C)C(=O)[C@H](CCCCNC(=O)OC(C)(C)C)NC(=O)[C@H]2CCCCN2C1=O [Example 138, c-[D-2-Naphthylalanyl-L-isoleucyl-D-pipecolyl-L-(N-t-butyloxycarbonyl)lysyl-D-(N-methyl)phenylalanyl-L-prolyl]] (cyclo(I[dPip]K(Boc)[dNMeF]P[d2Nal])) |  | 10000 nM |  |  | inhibition at 0.1 µM [1]: 50%; inhibition at 1 µM ([3]; 0.5 h, @ 1,000 (nM), read-out: [^3 H]-AVP-V2: percent inhibition of radioligand at the given concentration): 42% |
| CC[C@H](C)[C@@H]1NC(=O)[C@@H](Cc2ccccc2)NC(=O)[C@@H]2CCCN2C(=O)[C@@H](Cc2ccccc2)NC(=O)[C@@H]2CN(C(=O)OCc3ccccc3)CCN2C(=O)[C@H]2CCCCN2C1=O [Example 77, c-[D-Phenylalanyl-L-isoleucinyl-D-pipecolyl-L-piperazin-2-yl(4-Cbz)-D-phenylalanyl-L-prolyl]] (cyclo(I[dPip][X2][dF]P[dF])) | 240 nM | 10000 nM |  |  | IC50 [3]: 12300 nM |
| CC[C@H](C)[C@@H]1NC(=O)[C@@H](Cc2c[nH]c3ccccc23)NC(=O)[C@@H]2CCCN2C(=O)[C@@H](Cc2c[nH]cn2)N(C)C(=O)[C@@H]2CCCCN2C(=O)[C@H]2CCCCN2C1=O [Example 19, Cyclo[D-tryptophanyl-L-isoleucyl-D-pipecolyl-L-pipecolyl-D-(N^α methyl)histidyl-L-prolyl]] (cyclo(I[dPip][Pip][dNMeH]P[dW])) | 18 nM |  | 4330 nM | 13700 nM |  |
| CC[C@H](C)[C@@H]1NC(=O)[C@@H](Cc2ccc(OCc3ccccc3)cc2)NC(=O)[C@@H]2CCCN2C(=O)[C@@H](Cc2ccccc2)N(C)C(=O)[C@H](CCCCNC(=O)OC(C)(C)C)NC(=O)[C@H]2CCCCN2C1=O [Example 142, C-[D-(O-Benzyl)-tyrosinyl-L-isoleucyl-D-pipecolyl-L-(N-t-butyloxycarbonyl)lysyl-D-(N-methyl)phenylalanyl-L-prolyl]] (cyclo(I[dPip]K(Boc)[dNMeF]P[dY](Bn))) |  | > 10000 nM | > 10000 nM |  | inhibition at 1 µM [1]: 12% |
